{
  "source": "patent US6352989B1",
  "about": "“Nitrogenous heterocyclic derivatives and medicine thereof” (Eisai Co., Ltd., priority 1998, dated 2002)",
  "key": {"[1]": {"test_system": "TNFα production", "assay": "Inhibitory action on production of TNFα (LPS-stimulated human peripheral blood monocyte fraction, ELISA)", "format": "cell-based", "conditions": "LPS-stimulated human peripheral blood monocytes, incubation 18 to 24 hours, read-out: TNF^α Inhibition IC50", "protocol": "Inhibitory Action on Production of TNF: Human peripheral blood was collected in […] and centrifuged (1000 rpm, 10 minutes, at room temperature) to remove platelet rich plasma, and then the blood sample was mixed with Hank's balanced salt solution (HBSS) (with an equal volume to the removed plasma) containing penicillin (100 units/ml) and streptomycin (100 μg/ml) (referred to hereinafter as “p, s”). Ficoll-paque (Pharmacia) with an volume of 3/5 relative to the sample mixture was layered on the lower layer and centrifuged at 1500 rpm for 30 minutes at room temperature, and the monocyte nucleus fraction was collected. The resulting monocyte nucleus fraction was washed twice with p, s-containing HBSS and prepared as a cell float at a cell density of 2-4×10^6 cells/ml in p, s-containing RPMI1640 (containing 10% FCS). 400 μl of the prepared cell float was added to a 48-wells culture plate, and 50 μl LPS (100 ng/ml of saline) and 50 μl of each of compound solutions prepared at various concentrations were added to each well, followed by incubation at 37° C. in a 5% CO2 mixed air. After incubation for 18 to 24 hours, the incubated buffer was separated, and TNFα thus released from the cells was measured by an ELISA kit (Amasham).\nThe inhibitory action of the compound on production of TNFα was determined in terms of IC50 by plotting the concentrations of the compound and the amount of produced TNFα (%relative to the control) on semilogarithmic graph paper. The control (100%) for the amount of TNFα produced was obtained by subtracting the amount of TNFα produced in the (basal) group where neither LPS nor the compound was added, from the amount of TNFα produced in the (control) group where the compound was not added.\nAfter the compound was dissolved at a concentration of […] in DMSO solution containing the compound at a concentration which was 1000 times as high as the final concentration, and then the solution was diluted with RPMI1640 containing 10% FCS and p,s, to prepare a solution containing the compound at a concentration which was 10 times as high as the final concentration. In place of the compound solution, RPMI1640 (1% DMSO, 10% FCS) containing p, s was added to the control group basal group. In place of the LPS solution, physiological saline was added to the basal group."}, "[2]": {"molecular_target": "PDE4D (Homo sapiens, UniProt Q08499)", "sequence (Q08499 303-809 limits assumed)": "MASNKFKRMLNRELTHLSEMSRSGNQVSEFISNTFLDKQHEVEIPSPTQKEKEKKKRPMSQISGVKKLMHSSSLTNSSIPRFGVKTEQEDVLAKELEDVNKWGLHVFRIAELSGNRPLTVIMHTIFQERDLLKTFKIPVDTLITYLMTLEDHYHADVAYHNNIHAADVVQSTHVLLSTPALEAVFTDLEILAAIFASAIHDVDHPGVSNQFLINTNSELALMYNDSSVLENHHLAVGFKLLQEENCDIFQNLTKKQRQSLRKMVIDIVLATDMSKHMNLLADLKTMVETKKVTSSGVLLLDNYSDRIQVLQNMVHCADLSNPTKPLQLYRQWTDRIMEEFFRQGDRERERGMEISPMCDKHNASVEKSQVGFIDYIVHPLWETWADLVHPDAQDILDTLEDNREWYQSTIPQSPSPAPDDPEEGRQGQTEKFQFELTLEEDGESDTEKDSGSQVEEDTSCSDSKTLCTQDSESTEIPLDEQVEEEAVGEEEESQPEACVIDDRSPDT", "assay": "Inhibitory action on PDE4 (homogenate of BHK cells expressing cloned human PDE4D, [3H]-cAMP hydrolysis)", "format": "biochemical", "conditions": "average in triplicate measurements; 1 μM [3H]-cAMP substrate; read-out: PDE4 Inhibition IC50", "protocol": "Inhibitory Action on PDE4: PDE4D was cloned from human placental mRNA by PCR techniques, and cDNA after an alternative spliced site (Mol. Cell. Biol., 13, 6558, 1993) was expressed in BHK cells. Two clones of BHK cells expressing PDE4 activity which was 100 or more times as high as endogenous PDE4 activity were obtained, and one of the clones was cultured in a large amount, and its homogenate was used as an enzyme source of PDE4.\n50 mM Tris-HCl (pH 8.0), 0.1 mM EGTA, 0.1 mM MgCl2, 1 μM [^3H]-cGMP (100,000 dpm/tube) or 1 μM [^3H]-cAMP (100,000 dpm/tube) was added to the above homogenate, and 0.2 ml of the mixture was incubated at 30° C. for 10 to 20 minutes in the presence or absence of a test compound. The enzyme reaction was stopped by incubating the mixture at 95° C. for 1.5 minutes, and after cooling on ice, 50 μl nucleotidase (10 units/ml) was added thereto and incubated at 30° C. for 10 minutes. 550 μl of AG1-X2 resin slurry (H2O:resin=2:1) was added to the reaction mixture, then left at 4° C. for 10 minutes and centrifuged (10,000 rpm, 2.5 minutes, 4° C.), and 450 μl of the supernatant was measured for radioactivity.\nThe activity was compared in terms of IC50 (concentration of the compound at which 50% of the enzyme activity is inhibited) IC50 was determined by plotting of the concentration of cAMP as the substrate and the concentration of the compound on logarithmic graph paper. The results shown in Table 1 are the average in triplicate measurements. The test compound was first dissolved in DMSO and then diluted with the above-mentioned buffer for use."}, "[3]": {"test_system": "ZDP rat", "assay": "Blood sugar-depressing action (ZDP rat)", "format": "in vivo", "conditions": "for Blood sugar level, Before the administration: baseline before the administration of the test compound; for Blood sugar level, After the continuous administration for 1 week / Glucose level relative to that (=100%) before the administration, after the continuous administration for 1 week: oral, once every day for 1 week; for Blood sugar level, After the continuous administration for 1 week: 4 hours fast, tail vein blood; for Glucose level relative to that (=100%) before the administration, after the continuous administration for 1 week: value in parentheses", "protocol": "Blood Sugar-Depressing Action (ZDP rat): A test compound was suspended in 0.5% MC, and the suspension was orally administered to an animal once every day for 1 week. After the administration, the rat was allowed to fast for 4 hours, and blood was collected from the tail vein, added immediately to 0.6 M HClO4 (0.6 M HClO4=1:9), and centrifuged to give a supernatant which was then measured for glucose level by Glocose CII Test Wako Kit (Wako Pure Chemical Industries, Ltd., JP). In the table, values in the parentheses under the blood sugar level (mg/dl) indicate glucose levels relative to those (=100%) before the administration of the test compound."}},
  "data": [
    {"smiles": "CNc1nc(-c2cccc(NC(=O)c3ccncc3)c2)c2cc(OC)c(OC)cc2n1", "note": "[Example 2, 6,7-Dimethoxy-2-methylamino-4-[3-(4-pyridinecarbonylamino)phenyl]quinazoline]", "values": [
      {"measurement": "IC50", "setting": "[1]", "value": 4.7, "unit": "nM"},
      {"measurement": "IC50", "setting": "[2]", "value": 8.5, "unit": "nM"},
      {"measurement": "melting point", "value": "228 to 230", "unit": "°C"}
    ]},
    {"smiles": "CNc1nc(-c2cccc(NC(=O)c3ccc(OC)c(OC)c3)c2)c2cc(OC)c(OC)cc2n1", "note": "[Example 14, 6,7-Dimethoxy-4-[3-(3,4-dimethoxybenzoylamino)phenyl]-2-methylaminoquinazoline]", "values": [
      {"measurement": "IC50", "setting": "[1]", "value": 1.6, "unit": "nM"},
      {"measurement": "IC50", "setting": "[2]", "value": 4, "unit": "nM"},
      {"measurement": "melting point", "value": "128 to 130", "unit": "°C"}
    ]},
    {"smiles": "CNc1nc(-c2cccc(NC(=O)c3ccc(OC)c(Cl)c3)c2)c2cc(OC)c(OC)cc2n1", "note": "[Example 18, 4-[3-(3-Chloro-4-methoxybenzoylamino)phenyl]-6,7-dimethoxy-2-methylaminoquinazoline]", "values": [
      {"measurement": "IC50", "setting": "[1]", "value": 3.3, "unit": "nM"},
      {"measurement": "IC50", "setting": "[2]", "value": 1.4, "unit": "nM"},
      {"measurement": "melting point", "value": "130 to 132", "unit": "°C"}
    ]},
    {"smiles": "CNc1ccc(C(=O)Nc2cccc(-c3nc(NC)nc4cc(OC)c(OC)cc34)c2)cn1", "note": "[Example 32, 6,7-Dimethoxy-2-methylamino-4-[3-(6-methylaminonicotinoylamino)phenyl]quinazoline]", "values": [
      {"measurement": "IC50", "setting": "[1]", "value": 2.3, "unit": "nM"},
      {"measurement": "Blood sugar level, Before the administration", "setting": "[3]", "value": "478.5 ± 7.3", "unit": "mg/dL"},
      {"measurement": "Blood sugar level, After the continuous administration for 1 week", "setting": "[3]", "value": "349.3 ± 44.3", "unit": "mg/dL"},
      {"measurement": "Glucose level relative to that (=100%) before the administration, after the continuous administration for 1 week", "setting": "[3]", "value": "(73.0) %"},
      {"measurement": "IC50", "setting": "[2]", "value": 2.6, "unit": "nM"},
      {"measurement": "melting point", "value": "193 to 195", "unit": "°C"}
    ]},
    {"smiles": "CNc1nc(-c2cccc(-c3cnc4ccccc4c3)c2)c2cc(OC)c(OC)cc2n1", "note": "[Example 49, 6,7-Dimethoxy-2-methylamino-4-[3-(3-quinolyl)phenyl]quinazoline]", "values": [
      {"measurement": "IC50", "setting": "[1]", "value": 1.7, "unit": "nM"},
      {"measurement": "IC50", "setting": "[2]", "value": 1.1, "unit": "nM"},
      {"measurement": "melting point", "value": "218 to 220", "unit": "°C"}
    ]},
    {"smiles": "CCOc1cc2nc(NC)nc(-c3cccc(-c4cncc([S+](C)[O-])c4)c3)c2cc1OCC", "note": "(centres unmarked) [Example 62]", "values": [
      {"measurement": "Blood sugar level, Before the administration", "setting": "[3]", "value": "478.6 ± 24.0", "unit": "mg/dL"},
      {"measurement": "Blood sugar level, After the continuous administration for 1 week", "setting": "[3]", "value": "369.1 ± 37.3", "unit": "mg/dL"},
      {"measurement": "Glucose level relative to that (=100%) before the administration, after the continuous administration for 1 week", "setting": "[3]", "value": "(77.1) %"},
      {"measurement": "IC50", "setting": "[2]", "value": 1.9, "unit": "nM"},
      {"measurement": "melting point", "value": "188 to 190", "unit": "°C"}
    ]}
  ]
}
